Experimental data published in ChEMBL document CHEMBL1201862, “PubChem BioAssay data set” (2004).
Calls of active or inactive are those of the source.

How the values were obtained:
[1] = Luminescence Cell-Based Dose Response HTS to Identify Activators of Luciferase Translation or Activity in H4 […] Cells. [Related pubchem assays: 1829 (Project Summary), 1814 (Primary HTS)]; type: functional
H4 = assay: Luminescence Cell-Based Dose Response HTS to Identify Activators of 5'UTR Stem-Loop Driven Prion Protein mRNA Translation in H4 Neuroglioblastoma Cells. [Related pubchem assays: 1829 (Project Summary), 1814 (Primary HTS)]; type: functional; conditions: Homo sapiens
Streptokinase A = molecular target: T1, Streptokinase A (Streptococcus pyogenes serotype M1, UniProt P10520); assay: S. pyogenes streptokinase expression inhibitors, potency, dose response, plasminogen activation absorbance, OD405 (AID 1914); type: functional, Streptococcus pyogenes M1 GAS;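 also: secreted streptokinase activity via plasminogen activation per viability signal from cell pellet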
T1 sequence (P10520 whole entry): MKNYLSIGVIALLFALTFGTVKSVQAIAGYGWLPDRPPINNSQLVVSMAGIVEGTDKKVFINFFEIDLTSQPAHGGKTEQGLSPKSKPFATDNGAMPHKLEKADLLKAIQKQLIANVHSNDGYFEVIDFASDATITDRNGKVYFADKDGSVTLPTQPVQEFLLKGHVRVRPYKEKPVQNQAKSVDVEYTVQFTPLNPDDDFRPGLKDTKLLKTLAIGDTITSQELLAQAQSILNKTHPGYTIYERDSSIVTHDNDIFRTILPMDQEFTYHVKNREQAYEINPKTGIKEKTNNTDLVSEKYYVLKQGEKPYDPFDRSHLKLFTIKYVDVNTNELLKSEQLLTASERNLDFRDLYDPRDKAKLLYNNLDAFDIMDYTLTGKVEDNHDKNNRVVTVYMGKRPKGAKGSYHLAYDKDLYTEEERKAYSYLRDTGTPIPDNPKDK

Streptococcus = assay: Group A Streptococcus viability loss, dose response, counter-screen for streptokinase expression inhibitor project, luminescence, BacTiterGlo (AID 1915); type: functional, organism-based;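 also: potency for reduction of bacterial viability or growth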
[2] = test system: Streptococcus sp. 'group A'; assay: growth inhibition of control SK(-) GAS strain, dose response, counter-screen for streptokinase expression inhibitor project, luminescence, kanamycin, BacTiterGlo, confirmation (AID 1900); type: functional, organism-based
[3] = molecular target: T2, Rac GTPase-activating protein 1 (Homo sapiens, UniProt Q9H0H5); assay: MgcRacGAP GTPase-activating activity inhibitors, confirmation, biochemical, ADP Hunter fluorescence, primary and confirmatory (AID 624330); type: functional
T2 sequence (Q9H0H5 whole entry): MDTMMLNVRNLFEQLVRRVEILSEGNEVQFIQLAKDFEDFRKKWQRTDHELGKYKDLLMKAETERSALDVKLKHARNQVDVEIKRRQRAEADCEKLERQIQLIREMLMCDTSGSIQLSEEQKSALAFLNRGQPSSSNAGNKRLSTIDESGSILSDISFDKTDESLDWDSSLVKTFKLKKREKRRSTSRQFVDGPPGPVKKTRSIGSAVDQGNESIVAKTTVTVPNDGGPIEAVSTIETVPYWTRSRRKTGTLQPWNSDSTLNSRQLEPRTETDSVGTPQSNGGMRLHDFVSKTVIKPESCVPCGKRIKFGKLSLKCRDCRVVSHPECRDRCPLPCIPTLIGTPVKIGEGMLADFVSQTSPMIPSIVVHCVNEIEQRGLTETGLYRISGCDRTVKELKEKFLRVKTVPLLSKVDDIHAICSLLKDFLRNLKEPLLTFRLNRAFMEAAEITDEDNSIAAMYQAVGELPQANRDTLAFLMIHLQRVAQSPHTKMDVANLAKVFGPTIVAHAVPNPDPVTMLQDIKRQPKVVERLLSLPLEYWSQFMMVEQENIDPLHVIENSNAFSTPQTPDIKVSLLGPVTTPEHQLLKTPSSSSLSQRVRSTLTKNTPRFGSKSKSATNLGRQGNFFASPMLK

[4] = molecular target: T3, Heat shock factor protein 1 (Mus musculus, UniProt P38532); assay: inhibition of MG132-induced HSE-luciferase signal, confirmation, cell-based, NIH3T3, luminescence, dose retest (AID 2382); type: functional;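 also: NIH3T3 fibroblasts with HSF1-driven luciferase reporter stressed by proteasome inhibitor MG132; luminescence from HSF1-driven luciferase expression after 8 hours of MG132 stress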
T3 sequence (P38532 whole entry): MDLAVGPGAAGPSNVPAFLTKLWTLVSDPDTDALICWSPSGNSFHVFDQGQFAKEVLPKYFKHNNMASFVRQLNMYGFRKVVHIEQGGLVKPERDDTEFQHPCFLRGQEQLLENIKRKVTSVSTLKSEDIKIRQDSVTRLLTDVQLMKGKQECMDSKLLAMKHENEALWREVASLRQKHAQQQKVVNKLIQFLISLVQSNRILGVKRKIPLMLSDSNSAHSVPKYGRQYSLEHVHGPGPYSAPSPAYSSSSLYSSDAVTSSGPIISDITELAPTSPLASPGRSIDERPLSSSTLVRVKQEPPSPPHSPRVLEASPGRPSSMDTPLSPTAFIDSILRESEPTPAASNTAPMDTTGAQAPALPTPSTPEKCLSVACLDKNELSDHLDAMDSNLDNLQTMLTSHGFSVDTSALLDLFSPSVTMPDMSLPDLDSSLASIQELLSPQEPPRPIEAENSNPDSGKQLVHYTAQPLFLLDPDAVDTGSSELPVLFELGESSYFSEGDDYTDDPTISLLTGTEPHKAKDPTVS

Cytochrome P450 2C9 = Cytochrome P450 2C9 (Homo sapiens, UniProt P11712)
[5] = molecular target: T4, Corticotropin-releasing factor receptor 2/Corticotropin-releasing factor-binding protein (Homo sapiens, UniProt P24387+Q13324); assay: activators of CRF receptor 2 with binding protein – uHTS hits, confirmation (AID 602473); type: functional; conditions: read-out: EC50_Mean
T4 sequence (Q13324 whole entry): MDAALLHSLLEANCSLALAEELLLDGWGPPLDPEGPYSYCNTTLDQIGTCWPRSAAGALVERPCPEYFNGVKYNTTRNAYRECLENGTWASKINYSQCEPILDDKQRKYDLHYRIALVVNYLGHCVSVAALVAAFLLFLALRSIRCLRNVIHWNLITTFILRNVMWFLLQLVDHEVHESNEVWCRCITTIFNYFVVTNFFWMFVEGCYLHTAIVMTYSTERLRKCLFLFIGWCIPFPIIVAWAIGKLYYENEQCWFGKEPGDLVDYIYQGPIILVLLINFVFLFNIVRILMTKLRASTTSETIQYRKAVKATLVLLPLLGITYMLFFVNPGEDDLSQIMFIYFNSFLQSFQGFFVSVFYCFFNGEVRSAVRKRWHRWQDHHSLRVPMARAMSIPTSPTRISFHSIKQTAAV
T4 sequence (P24387 whole entry): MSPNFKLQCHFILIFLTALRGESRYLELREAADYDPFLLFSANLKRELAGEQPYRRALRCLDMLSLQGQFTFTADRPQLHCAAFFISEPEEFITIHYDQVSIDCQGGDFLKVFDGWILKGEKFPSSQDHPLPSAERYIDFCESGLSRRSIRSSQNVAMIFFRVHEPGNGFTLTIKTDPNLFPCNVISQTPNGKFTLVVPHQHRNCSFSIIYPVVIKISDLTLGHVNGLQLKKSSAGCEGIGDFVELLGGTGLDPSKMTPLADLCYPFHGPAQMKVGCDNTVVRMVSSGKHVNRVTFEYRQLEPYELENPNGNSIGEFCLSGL

Cytochrome P450 2C19 = Cytochrome P450 2C19 (Homo sapiens, UniProt P33261); assay: Cytochrome panel assay with activity outcomes. Panel member name: p450-cyp2c19 Compounds with AC50 equal or less than 10 uM are considered active; type: functional; conditions: read-out: AC50
Chain of Cytochrome P450 2C19 (P33261 whole entry): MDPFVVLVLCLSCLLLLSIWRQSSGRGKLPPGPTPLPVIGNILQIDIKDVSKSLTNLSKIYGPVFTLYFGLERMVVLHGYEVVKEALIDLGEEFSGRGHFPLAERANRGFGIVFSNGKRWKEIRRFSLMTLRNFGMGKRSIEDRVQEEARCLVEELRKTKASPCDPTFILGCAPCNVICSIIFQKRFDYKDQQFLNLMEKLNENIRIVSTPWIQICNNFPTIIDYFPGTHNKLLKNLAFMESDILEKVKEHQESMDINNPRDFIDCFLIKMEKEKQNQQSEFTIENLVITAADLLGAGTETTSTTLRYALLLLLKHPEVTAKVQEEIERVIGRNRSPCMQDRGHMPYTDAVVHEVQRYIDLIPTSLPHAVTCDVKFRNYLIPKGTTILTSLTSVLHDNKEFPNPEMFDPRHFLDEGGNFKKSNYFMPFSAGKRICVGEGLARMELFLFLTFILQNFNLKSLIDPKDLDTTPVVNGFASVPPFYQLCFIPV

Chain of Cytochrome P450 2C9 (P11712 whole entry): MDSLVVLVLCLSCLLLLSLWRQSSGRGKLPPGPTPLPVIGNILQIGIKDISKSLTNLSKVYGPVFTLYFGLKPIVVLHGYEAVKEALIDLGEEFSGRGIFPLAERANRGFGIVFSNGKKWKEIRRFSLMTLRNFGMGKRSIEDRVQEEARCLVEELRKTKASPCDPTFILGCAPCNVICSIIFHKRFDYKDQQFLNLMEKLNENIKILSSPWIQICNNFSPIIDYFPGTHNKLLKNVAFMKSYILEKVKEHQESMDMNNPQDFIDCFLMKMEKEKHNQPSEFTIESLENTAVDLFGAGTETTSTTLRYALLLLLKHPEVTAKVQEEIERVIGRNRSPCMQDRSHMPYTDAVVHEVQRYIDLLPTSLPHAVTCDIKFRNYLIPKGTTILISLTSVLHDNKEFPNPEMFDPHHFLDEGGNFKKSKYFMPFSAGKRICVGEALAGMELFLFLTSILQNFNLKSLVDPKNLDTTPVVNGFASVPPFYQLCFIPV

## O=C(NCCc1ccccc1)C1=COCCO1
[1]
  EC50: 0.762 µM (active)
H4
  EC50: > 120 µM (not active)

## O=C(Nc1nnc(C2=COCCO2)o1)c1cccc(F)c1
Streptokinase A
  EC50: > 150 µM (not active)
Streptococcus
  EC50: 19.6 µM (active)
[2]
  EC50: 1.83 µM (active)

## Oc1ccc(N2CCN(C(c3cccs3)c3nnnn3CCc3ccccc3)CC2)cc1 (stereo not drawn)
[3]
  IC50: 47.3 µM (active)

## COc1ccc(CCN2CC(C(=O)NCCc3ccccn3)CCC2=O)cc1 (stereo not drawn)
Streptokinase A
  EC50: > 150 µM (not active)
Streptococcus
  EC50: > 150 µM (not active)
[2]
  EC50: > 150 µM (not active)

## COc1ccc(N2CCN(c3ncccc3C#N)CC2)cc1
[3]
  IC50: 157 µM (active)

## Cc1ccc(C(=O)Nc2ccc3c(c2)C(=O)NC3=O)cc1
[4]
  EC50: > 195 µM (not active)

## CCC[C@@H]1C[C@@]1(CCC)[C@@H](NP(=O)(c1ccccc1)c1ccccc1)c1ccc(C(=O)OC)cc1
Streptokinase A
  EC50: > 150 µM (not active)
Streptococcus
  EC50: 6.87 µM (active)
[2]
  EC50: 5.5 µM (active)

## CC(=O)Nc1ccc(-c2nnn(CC(=O)Nc3ccc4c(c3)OCO4)n2)cc1Cl
[4]
  EC50: > 195 µM (not active)

## COC(=O)[C@@]1(Cc2ccc(OC)cc2)[C@H]2c3cc(C(=O)N4CCCC4)n(Cc4cc(C)n(C)n4)c3C[C@H]2CN1C(=O)c1ccccc1
Cytochrome P450 2C9
  AC50: 12.6 µM (inconclusive)

## Cc1ccc(-n2ncc(Cl)c2C(=O)NC2CC2)cc1
[1]
  EC50: 0.26 µM (active)

## O=C(c1cc(-c2ccccc2)nc2ccccc12)N1CCN(c2ccccc2O)CC1
Streptokinase A
  EC50: 61.5 µM (active)
Streptococcus
  EC50: 61.7 µM (active)
[2]
  EC50: 23.8 µM (active)

## O=C1CN(C(=O)COc2c(Cl)cccc2Cl)c2ccccc2N1
[4]
  EC50: > 195 µM (not active)

## CN1/C(=C\C=C(/C#N)C(=O)Nc2ccc(Cl)cc2)C(C)(C)c2ccccc21
[5]
  EC50: 6.43 µM (active)

## CCOC(=O)c1cnc2ccc(C(=O)OC)cc2c1NCCCN1CCOCC1
[4]
  EC50: > 195 µM (not active)

## Cc1ccc(C(=O)NC(=S)NNC(=O)COc2ccccc2C)cc1
[5]
  EC50: 10.6 µM (active)
Streptococcus
  EC50: 0.555 µM (active)
[2]
  EC50: 0.138 µM (active)

## CCCn1nc2cc(C(=O)NCc3ccc4c(c3)OCO4)ccc2c1OCC
Cytochrome P450 2C19
  AC50: 14.1 µM (inconclusive)
Cytochrome P450 2C9
  AC50: 10 µM (inconclusive)

## CCc1ccc(-c2nc(C[S+]([O-])CC(=O)NCc3cccnc3)c(C)o2)cc1 (stereo not drawn)
[4]
  EC50: > 195 µM (not active)

## COc1ccc(C(=O)N2CCN(CCCc3ccccc3)CC2)cc1OC
[3]
  IC50: 123 µM (active)

## Cc1cc(Oc2ccc(-c3ccccc3)cc2)n2ncnc2n1
[3]
  IC50: 22.7 µM (active)

## COc1ccc(N2C(=O)/C(=C\NNS(=O)(=O)c3cc(C)ccc3C)c3ccccc3C2=O)cc1OC
[5]
  EC50: 15.5 µM (active)

## CCc1c(O)n(-c2ccccc2)c(SCC(=O)NC(C)(C)C)nc1=O
Cytochrome P450 2C19
  AC50: 35.5 µM (inconclusive)
Cytochrome P450 2C9
  AC50: 20 µM (inconclusive)

## CCC(CC)C(=O)Nc1cccc(C(=O)Nc2ccc(OC)cc2[N+](=O)[O-])c1
Cytochrome P450 2C19
  AC50: 0.316 µM (inconclusive)
Cytochrome P450 2C9
  AC50: 0.891 µM (inconclusive)

## C=CCn1c(C)nnc1SCC(=O)Nc1nc(C)c(C(=O)N(C)C)s1
[4]
  EC50: > 195 µM (not active)

## CCN(CC)c1ccc(NC(=O)c2c(C)noc2C)cc1
Streptokinase A
  EC50: > 150 µM (not active)
Streptococcus
  EC50: > 150 µM (not active)
[2]
  EC50: > 150 µM (not active)

## O=S(=O)(Nc1cccc(-n2cnnn2)c1)c1cc(Cl)ccc1Cl
[4]
  EC50: > 195 µM (not active)

## Nc1ccc(-c2nc3nc(N)nc(N)c3nc2-c2ccc(N)cc2)cc1
Streptokinase A
  EC50: > 150 µM (not active)
Streptococcus
  EC50: > 150 µM (not active)
[2]
  EC50: 2.94 µM (active)

## CCN(CC)c1ccc(C2Nc3cccc4cccc(c34)N2)cc1
[1]
  EC50: 16.8 µM (active)
H4
  EC50: 27.2 µM (active)

## O=C(O)CCC1(C(=O)O)OCCc2ccccc21 (stereo not drawn)
[4]
  EC50: > 195 µM (not active)

## Cc1nccn1Cc1cccc2ccccc12
[4]
  EC50: > 195 µM (not active)

## Fc1cc(F)cc(-c2oncc2-c2nnnn2-c2ccccc2)c1
[4]
  EC50: > 195 µM (not active)

## CCOC(=O)c1cn2nc(Oc3ccccc3)ccc2n1
[1]
  EC50: 7.96 µM (active)
H4
  EC50: > 120 µM (not active)

## Cn1nc(-c2ccccc2)c(C(=O)Nc2ccc(Cl)cc2)c1Cl
Cytochrome P450 2C19
  AC50: 2 µM (inconclusive)
Cytochrome P450 2C9
  AC50: 0.141 µM (inconclusive)

## CC[C@@H](C)[C@H](NC(=O)Cc1c(C)c2cc3c(C)c(C)oc3c(C)c2oc1=O)C(=O)O
[4]
  EC50: > 195 µM (not active)

## CCCC(=O)Nc1sc2c(c1C#N)CCCCC2
[1]
  EC50: 0.102 µM (active)
H4
  EC50: > 120 µM (not active)

## Cc1ccc(NC(=O)CN2C(=O)N/C(=C/c3ccc(C)o3)C2=O)cc1
Cytochrome P450 2C9
  AC50: 14.1 µM (inconclusive)

## Cc1cc(C)nc(SCc2nnc(SCC(N)=O)n2Cc2ccco2)n1
Cytochrome P450 2C9
  AC50: 3.55 µM (inconclusive)

## COc1cccc(CN2CCN(C(=O)c3ccco3)CC2)c1OC
[3]
  IC50: 163 µM (active)

## Oc1ccc(/C=N/NC(=S)N2CCOCC2)cc1
[3]
  IC50: 63.7 µM (active)

## CSC1=NN(c2ccccc2)CN(c2ccccc2)N1C
[3]
  IC50: 75.6 µM (active)

## O=c1c(-c2ccccc2Cl)c[nH]n1-c1ccccc1
[3]
  IC50: 97.4 µM (active)

## O=C(N/N=C/c1ccc(OCc2ccccc2)cc1)c1ccncc1
[1]
  EC50: 17.7 µM (active)
H4
  EC50: 19.3 µM (active)

## CSc1ccc(/C=N/n2c(C)cc(C)cc2=O)cc1
[1]
  EC50: 18.2 µM (active)
H4
  EC50: 7.91 µM (active)

## CC(/C=N/n1c(S)nnc1-c1ccco1)=C\c1ccccc1
[3]
  IC50: 108 µM (active)

## C[C@H](N)C(=O)OC(C)(C)Cc1ccc(Cl)cc1 [(S)-ALAPROCLATE]
Cytochrome P450 2C9
  AC50: 39.8 µM (inconclusive)
